# Entries after “also recorded” stand apart in the source; their conditions may differ.
# How the values were obtained:
# PBMCs = experiment: MTT cytotoxicity assay in normal PBMCs; assay type: cell-based, human; conditions: PBMCs from normal volunteers, tubacin 2.5-20 μM, 48 h
# [1] = test system: tubulin acetylation versus lysine acetylation; experiment: Immunofluorescence assay for acetylated tubulin versus acetylated lysine; assay type: cell-based
# Text: The present invention provides an immunofluorescence-based assay for identifying test agents with HDAC and/or TDAC inhibitory activity. The inventive assay is based on the use of specific antibodies for acetylated tubulin and acetylated lysine (i.e., a marker for acetylated histones). […] As described above, any type of agent, including small molecules, polymers, biomolecules, proteins, peptides, polynucleotides, etc., may be screened using the inventive assay. In certain embodiments, small molecules are screened. In certain particular embodiments, the small molecules are tubacin-like or are tubacin derivatives. In certain embodiments, the small molecules are compounds of the present invention. The test agents may also be small molecules purchased, prepared through traditional synthetic techniques, prepared through combinatorial chemistry techniques, or obtained from historical chemical collections. In certain embodiments, the test agents are biomolecules. In other embodiments, the test agents are proteins or peptides. In yet other embodiments, the test agents are polynucleotides. In certain embodiments, the test agents are polymers.
# The assay involves contacting cells with a specific concentration of the test agent under specific conditions. […] There particular parameters may be determined by the operator or scientist conducting the assay as would be appreciated by one of skill in this art. After a determined time of incubation with the test compound, the cells are treated with a first primary antibody directed against acetylated tubulin and a second primary antibody directed against acetylated lysine. […] The signal from each of the secondary antibodies is measured and optionally quantitated to determine the amount of TDAC and HDAC inhibition under the specified conditions with the test agent. Optionally, the extent of inhibition is determined relative to a control in which no test agent was added. In certain embodiments, the secondary antibody is left out and the primary antibodies are uniquely labeled for identification and optionally quantification. […]
compound,measurement,setting,value
O=C(CCCCCCC(=O)Nc1ccc([C@H]2O[C@@H](CSc3nc(-c4ccccc4)c(-c4ccccc4)o3)C[C@@H](c3ccc(CO)cc3)O2)cc1)NO [tubacin],cytotoxicity of tubacin in PBMCs,PBMCs,no cytotoxicity; also recorded: No adverse effect
same,specificity for tubulin acetylation versus lysine acetylation,[1]; A549 cells,specificity
same,specificity for tubulin acetylation versus lysine acetylation,[1]; cells not given,specificity

# Reference: patent publication US10172905B1, “Treatment of protein degradation disorders” (President and Fellows of Harvard College, priority 2005, dated 2019)
